# Data reported in US20160220569A1, “CDK4/6 Inhibitor Dosage Formulations For The Protection Of Hematopoietic Stem And Progenitor Cells During Chemotherapy” (G1 Therapeutics, Inc., priority 2015, published 2016).
# Read-outs that look alike come from different tables or passages of the source.
# Assay: 14-day oral gavage toxicokinetic study in rats
# Assay type: in vivo
# Details: female, rat, plasma, po; for concentration at 1 h / concentration at 2 h / concentration at 4 h / concentration at 8 h / concentration at 12 h / concentration at 24 h / concentration at 0.5 h / concentration at […]: rats; for concentration at […]: Day 14, […]; for half-life: read-out: t½ (converted)
# Protocol: Plasma was obtained from blood samples collected from rats in a composite sampling scheme, with 3 samples collected per sex, per dose, at each target collection time, as illustrated in Table 21 to Table 25. Samples were collected from the vehicle control group on Day 1 and Day 14 at 3 hour after administration. […] Blood samples were collected in tubes containing K3EDTA as an anticoagulant and placed on ice until processed to plasma via centrifugation. Samples were stored frozen at −80° C. until shipment to the bioanalytical laboratory for analysis.
# The following parameters were determined:
# Cmax: Maximum observed plasma concentration (ng/mL).
# A value of 0 ng/mL was assigned to all values below the lower limit of quantitation (BLQ, <10.0 ng/mL).
# AUC(0-inf): Area under the plasma concentration vs. time curve extrapolated from 0 to infinity (ng*h/mL), calculated as AUC(0-t)+AUC(t-inf) where AUC(t-inf) is calculated as last measurable concentration (CLast) divided by ke, where ke is the elimination rate constant determined by linear regression of the last three analytically measured points on the log plasma concentration vs. time curve. The selection criteria of the data points for inclusion in the calculation of ke required that at least three data points representing the terminal phase (after Tmax) were regressed and that R2≧0.850 when rounded.
# CL: Clearance (L/h/kg), calculated as the dose divided by AUC(0-t).
# Vd: Volume of distribution (L/kg), calculated as dose divided by the product of ke and AUC(0-inf).
# Vdss: Steady state volume of distribution (L/kg), calculated as clearance […] mean residence time, where mean residence time is calculated as the area under the first moment curve divided by AUC(0-t).
# t½: Elimination half-life (h), calculated as ln(2)/ke, where ke is the elimination rate constant determined by linear regression. Half-life was defined as not determined if regression criteria (specified in AUC(0-inf) above) were not met.
# Cmax/Dose: Normalized Cmax, calculated as Cmax divided by total dose.
# AUC/Dose: Normalized AUC, calculated as AUC(0-t) divided by total dose.
# ii. Statistical Analysis Mean and standard deviation (SD) were calculated in Watson. Values of BLQ were assigned a value of 0 ng/mL for mean calculations. Concentration values and derived TK parameters were reported to three significant figures.
# [1] = 2 mg/kg, oral 2 mg/kg, Study Day 1, Female
# [2] = 2 mg/kg, oral 2 mg/kg, Study Day 14, Female
# [3] = 5 mg/kg, oral 5 mg/kg, Study Day 1, Female
# [4] = 5 mg/kg, oral 5 mg/kg, Study Day 14, Female
compound,measurement,setting,value
"CN1CCN(c2ccc(Nc3ncc4cc5n(c4n3)C3(CCCCC3)CNC5=O)nc2)CC1 [Compound 1, 2′-((5-(4-methylpiperazin-1-yl)pyridin-2-yl)amino)-7′,8′-dihydro-6′H-spiro[cyclohexane-1,9′-pyrazino[1′,2′:1,5]pyrrolo[2,3-d]pyrimidin]-6′-one]",concentration at 1 h,"2 mg/kg, Mean Compound 1 Plasma Concentration, oral 2 mg/kg, Day 1, 1 h, Female",91.4 ng/mL
same,concentration at 2 h,"2 mg/kg, Mean Compound 1 Plasma Concentration, oral 2 mg/kg, Day 1, 2 h, Female",196 ng/mL
same,concentration at 4 h,"2 mg/kg, Mean Compound 1 Plasma Concentration, oral 2 mg/kg, Day 1, 4 h, Female",175 ng/mL
same,concentration at 8 h,"2 mg/kg, Mean Compound 1 Plasma Concentration, oral 2 mg/kg, Day 1, 8 h, Female",96.7 ng/mL
same,concentration at 12 h,"2 mg/kg, Mean Compound 1 Plasma Concentration, oral 2 mg/kg, Day 1, 12 h, Female",82.2 ng/mL
same,concentration at 24 h,"2 mg/kg, Mean Compound 1 Plasma Concentration, oral 2 mg/kg, Day 1, 24 h, Female",13 ng/mL
same,concentration at 0.5 h,"2 mg/kg, Mean Compound 1 Plasma Concentration, oral 2 mg/kg, Day 14, 0.5 h, Female",150 ng/mL
same,concentration at 1 h,"2 mg/kg, Mean Compound 1 Plasma Concentration, oral 2 mg/kg, Day 14, 1 h, Female",111 ng/mL
same,concentration at 2 h,"2 mg/kg, Mean Compound 1 Plasma Concentration, oral 2 mg/kg, Day 14, 2 h, Female",212 ng/mL
same,concentration at 8 h,"2 mg/kg, Mean Compound 1 Plasma Concentration, oral 2 mg/kg, Day 14, 8 h, Female",117 ng/mL
same,concentration at 12 h,"2 mg/kg, Mean Compound 1 Plasma Concentration, oral 2 mg/kg, Day 14, 12 h, Female",48.7 ng/mL
same,concentration at 24 h,"2 mg/kg, Mean Compound 1 Plasma Concentration, oral 2 mg/kg, Day 14, 24 h, Female",10.8 ng/mL
same,concentration at […],"2 mg/kg, Mean Compound 1 Plasma Concentration, oral 2 mg/kg, Female",10 ng/mL
same,AUC(0-inf),[1],2160 ng·h/mL
same,AUC(0-t),[1],2060 ng·h/mL
same,Cmax,[1],196 ng/mL
same,Tmax,[1],2 h
same,half-life,[1],5.25 h
same,AUC(0-inf),[2],1850 ng·h/mL
same,AUC(0-t),[2],1770 ng·h/mL
same,Cmax,[2],212 ng/mL
same,Tmax,[2],2 h
same,half-life,[2],4.83 h
same,concentration at 0.5 h,"5 mg/kg, Individual Compound 1 Plasma Concentration, daily oral 5 mg/kg, Day 1, Female, 0.5 h",246 ng/mL
same,concentration at 2 h,"5 mg/kg, Individual Compound 1 Plasma Concentration, daily oral 5 mg/kg, Day 1, Female, 2 h",533 ng/mL
same,concentration at 8 h,"5 mg/kg, Individual Compound 1 Plasma Concentration, daily oral 5 mg/kg, Day 1, Female, 8 h",432 ng/mL
same,concentration at 24 h,"5 mg/kg, Individual Compound 1 Plasma Concentration, daily oral 5 mg/kg, Day 1, Female, 24 h",23.2 ng/mL
same,concentration at 1 h,"5 mg/kg, Individual Compound 1 Plasma Concentration, daily oral 5 mg/kg, Day 14, Female, 1 h",428 ng/mL
same,concentration at 4 h,"5 mg/kg, Individual Compound 1 Plasma Concentration, daily oral 5 mg/kg, Day 14, Female, 4 h",423 ng/mL
same,concentration at 8 h,"5 mg/kg, Individual Compound 1 Plasma Concentration, daily oral 5 mg/kg, Day 14, Female, 8 h",234 ng/mL
same,concentration at 12 h,"5 mg/kg, Individual Compound 1 Plasma Concentration, daily oral 5 mg/kg, Day 14, Female, 12 h",112 ng/mL
same,concentration at 24 h,"5 mg/kg, Individual Compound 1 Plasma Concentration, daily oral 5 mg/kg, Day 14, Female, 24 h",22.2 ng/mL
same,concentration at 0.5 h,"5 mg/kg, Mean Compound 1 Plasma Concentration, oral 5 mg/kg, Day 1, 0.5 h, Female",267 ng/mL
same,concentration at 1 h,"5 mg/kg, Mean Compound 1 Plasma Concentration, oral 5 mg/kg, Day 1, 1 h, Female",406 ng/mL
same,concentration at 2 h,"5 mg/kg, Mean Compound 1 Plasma Concentration, oral 5 mg/kg, Day 1, 2 h, Female",528 ng/mL
same,concentration at 4 h,"5 mg/kg, Mean Compound 1 Plasma Concentration, oral 5 mg/kg, Day 1, 4 h, Female",482 ng/mL
same,concentration at 8 h,"5 mg/kg, Mean Compound 1 Plasma Concentration, oral 5 mg/kg, Day 1, 8 h, Female",360 ng/mL
same,concentration at 12 h,"5 mg/kg, Mean Compound 1 Plasma Concentration, oral 5 mg/kg, Day 1, 12 h, Female",140 ng/mL
same,concentration at 24 h,"5 mg/kg, Mean Compound 1 Plasma Concentration, oral 5 mg/kg, Day 1, 24 h, Female",18.6 ng/mL
same,concentration at 0.5 h,"5 mg/kg, Mean Compound 1 Plasma Concentration, oral 5 mg/kg, Day 14, 0.5 h, Female",382 ng/mL
same,concentration at 1 h,"5 mg/kg, Mean Compound 1 Plasma Concentration, oral 5 mg/kg, Day 14, 1 h, Female",519 ng/mL
same,concentration at 2 h,"5 mg/kg, Mean Compound 1 Plasma Concentration, oral 5 mg/kg, Day 14, 2 h, Female",493 ng/mL
same,concentration at 4 h,"5 mg/kg, Mean Compound 1 Plasma Concentration, oral 5 mg/kg, Day 14, 4 h, Female",439 ng/mL
same,concentration at 8 h,"5 mg/kg, Mean Compound 1 Plasma Concentration, oral 5 mg/kg, Day 14, 8 h, Female",255 ng/mL
same,concentration at 12 h,"5 mg/kg, Mean Compound 1 Plasma Concentration, oral 5 mg/kg, Day 14, 12 h, Female",105 ng/mL
same,concentration at 24 h,"5 mg/kg, Mean Compound 1 Plasma Concentration, oral 5 mg/kg, Day 14, 24 h, Female",19.2 ng/mL
same,concentration at […],"5 mg/kg, Mean Compound 1 Plasma Concentration, oral 5 mg/kg, Female",70.7 ng/mL
same,AUC(0-inf),[3],5440 ng·h/mL
same,AUC(0-t),[3],5340 ng·h/mL
same,Cmax,[3],528 ng/mL
same,Tmax,[3],2 h
same,half-life,[3],3.82 h
same,AUC(0-inf),[4],4740 ng·h/mL
same,AUC(0-t),[4],4620 ng·h/mL
same,Cmax,[4],519 ng/mL
